Source: patent US5424293A (Cassella AG, priority 1992, dated 1995)
Like-named read-outs stand apart in the source and are kept apart here.

Legend:
[1] = target: T1, fibrinogen receptor (glycoprotein IIb/IIIa) (Homo sapiens, UniProt P05106+P08514); assay: Inhibition of binding of 125I-fibrinogen to its receptor on intact, gel-filtered human platelets; conditions: inhibition of 125I-fibrinogen binding, stimulation with ADP (10 μM), read-out: Ki (μM), ADP-stimulated
T1 construct: endogenous in cells
T1 sequence (P08514 32-887 limits assumed): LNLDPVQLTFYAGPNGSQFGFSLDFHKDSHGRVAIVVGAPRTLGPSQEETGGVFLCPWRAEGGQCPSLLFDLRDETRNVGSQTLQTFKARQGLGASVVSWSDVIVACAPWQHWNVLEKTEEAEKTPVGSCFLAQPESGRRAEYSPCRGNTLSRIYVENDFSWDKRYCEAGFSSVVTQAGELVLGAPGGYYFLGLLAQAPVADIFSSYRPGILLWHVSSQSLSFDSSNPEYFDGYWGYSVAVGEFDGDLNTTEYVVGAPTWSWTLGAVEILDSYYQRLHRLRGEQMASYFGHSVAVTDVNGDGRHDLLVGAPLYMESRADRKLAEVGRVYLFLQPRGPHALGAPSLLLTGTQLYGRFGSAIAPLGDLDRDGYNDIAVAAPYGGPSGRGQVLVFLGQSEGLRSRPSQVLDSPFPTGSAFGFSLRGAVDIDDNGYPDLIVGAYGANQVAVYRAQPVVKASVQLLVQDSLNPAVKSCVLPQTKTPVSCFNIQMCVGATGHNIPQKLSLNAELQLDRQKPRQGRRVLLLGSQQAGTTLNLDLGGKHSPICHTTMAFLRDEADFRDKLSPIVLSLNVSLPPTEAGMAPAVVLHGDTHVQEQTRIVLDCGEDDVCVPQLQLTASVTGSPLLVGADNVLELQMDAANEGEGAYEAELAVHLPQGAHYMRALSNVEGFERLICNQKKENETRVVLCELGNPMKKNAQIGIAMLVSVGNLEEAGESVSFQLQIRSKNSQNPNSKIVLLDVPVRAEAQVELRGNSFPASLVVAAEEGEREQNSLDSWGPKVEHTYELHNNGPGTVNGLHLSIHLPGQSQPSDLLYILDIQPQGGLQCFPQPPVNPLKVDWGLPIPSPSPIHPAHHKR
T1 sequence (P08514 891-1039 partner limits assumed): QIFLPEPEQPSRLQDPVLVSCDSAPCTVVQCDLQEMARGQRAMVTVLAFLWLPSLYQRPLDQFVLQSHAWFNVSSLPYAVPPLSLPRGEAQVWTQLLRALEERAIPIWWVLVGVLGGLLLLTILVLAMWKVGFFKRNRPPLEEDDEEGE
T1 sequence (P05106 27-788): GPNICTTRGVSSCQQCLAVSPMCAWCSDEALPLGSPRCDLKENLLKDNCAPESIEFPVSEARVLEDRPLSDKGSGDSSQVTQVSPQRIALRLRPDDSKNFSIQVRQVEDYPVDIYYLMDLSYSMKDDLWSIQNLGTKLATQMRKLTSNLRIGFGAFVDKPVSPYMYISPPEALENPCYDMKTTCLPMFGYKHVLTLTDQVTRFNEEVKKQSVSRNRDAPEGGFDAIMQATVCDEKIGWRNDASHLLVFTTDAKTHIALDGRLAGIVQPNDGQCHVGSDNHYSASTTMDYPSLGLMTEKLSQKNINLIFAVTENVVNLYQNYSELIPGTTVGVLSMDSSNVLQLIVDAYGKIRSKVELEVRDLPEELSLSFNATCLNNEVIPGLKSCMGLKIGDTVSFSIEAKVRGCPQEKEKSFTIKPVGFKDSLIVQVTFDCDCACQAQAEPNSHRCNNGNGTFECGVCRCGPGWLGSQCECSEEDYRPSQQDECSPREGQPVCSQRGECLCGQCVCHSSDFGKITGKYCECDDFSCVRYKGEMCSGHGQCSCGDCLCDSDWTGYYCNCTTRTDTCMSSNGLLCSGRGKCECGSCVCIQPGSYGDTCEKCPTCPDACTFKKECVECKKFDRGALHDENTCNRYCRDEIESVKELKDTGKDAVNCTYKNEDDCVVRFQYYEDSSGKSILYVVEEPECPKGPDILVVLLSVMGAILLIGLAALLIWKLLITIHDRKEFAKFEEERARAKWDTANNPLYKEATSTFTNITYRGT
Protocol: (§1) The compounds are tested in particular for their inhibitory action in blood platelet aggregation and the adhesion of fibrinogen to blood platelets. Gel-filtered blood platelets from human donor blood are used, which are activated with ADP or thrombin.
The inhibition of the binding of fibrinogen to its receptor (glycoprotein IIb/IIIa) by the compounds according to the invention is tested on intact, gel-filtered human platelets. The Ki value of the inhibition of binding of ^125 I-fibrinogen after stimulation with ADP (10 μM) is given. (References: J. S. Bennett and G. Vilaire, J. Clin. Invest. 64 (1979), 1393-1401; E. Kornecki et al., J. Biol. Chem. 256 (1981), 5695-5701; G. A. Marguerie et al., J. Biol. Chem. 254 (1979), 5357-5363; G. A. Marguerie et al., J. Biol. Chem. 255 (1980), 154-161).

[2] = system: gel-filtered human platelets; assay: Inhibition of aggregation of gel-filtered human platelets after ADP or thrombin stimulation; type: cell-based
Protocol: as §1
As a functional test, the inhibition of aggregation of gel-filtered human platelets by the compounds according to the invention is measured after ADP or thrombin stimulation. The IC50 value of the inhibition is given.

SMILES | Ki [1] | IC50 ([2]; Platelet, inhibition of aggregation of gel-filtered human platelets, ADP stimulation, read-out: ADP-stimulated IC50) | IC50 ([2]; Platelet; inhibition of aggregation of gel-filtered human platelets, thrombin stimulation; read-out: Thrombin-stimulated IC50 9 μM)) | IC50 ([2]; inhibition of aggregation of gel-filtered human platelets, ADP stimulation, read-out: ADP-stimulated IC50) | IC50 ([2]; inhibition of aggregation of gel-filtered human platelets, thrombin stimulation; read-out: Thrombin-stimulated IC50 9 μM))
N=C(N)Nc1cccc(C2NC(=O)N(CC(=O)N[C@@H](CC(=O)O)C(=O)N[C@H](C(=O)O)c3ccccc3)C2=O)c1 (stereo partly drawn) [Example 2] | 2 µM | 6000 nM | 3000 nM | – | –
N=C(N)Nc1ccc(C2NC(=O)N(CC(=O)N[C@@H](CC(=O)O)C(=O)N[C@H](C(=O)O)c3ccccc3)C2=O)cc1 (stereo partly drawn) [Example 1, (5-(4-Guanidinophenyl)-2,4-dioxoimidazolin-3-yl)acetyl-L-aspartyl-L-phenylglycine] | 0.03 µM | – | – | 200 nM | 70 nM
